Data: patent US20240009174A1, “METHODS FOR DISRUPTING MITOCHONDRIAL UNFOLDED PROTEIN RESPONSE” (Health Research, Inc., priority 2020, published 2024)

Experiments:
Assay type in all cases: cell-based
[1] = test system: PCa cells (LNCaP and PC-3); assay: Cell death / apoptosis in PCa cells (Annexin V FITC/PI flow cytometry)
Description: (§1) FIG. 6. Pharmacological inhibition of HSP60-ClpP interaction induces UPR^mt and PCa cell death. (A) Docking of DCEM1 into apical domain of HSP60. (B) LNCaP and PC-3 cells were treated with DCEM1 for 24 hours and HSP60-ClpP interaction was analyzed by co-immunoprecipitation assay. (C) LNCaP and PC-3 cells were treated with DCEM1 for 24 hours and mitoROS levels were analyzed by flow cytometry using mitoSOX dye. (D) LNCaP and PC-3 cells were treated with DCEM1 for 24 hours and poly-Ub protein levels were analyzed by western blotting. (E) LNCaP and PC-3 cells were treated with DCEM1 for 24 and 48 hours and apoptotic cell populations were analyzed by flow cytometry using Annexin V FITC/PI method as explained in materials and methods. In (E) top panel, the bars in each series from left to right are control, 5, 10, and 20, and in (E) bottom panel, the bars in each series from left to right are DMSO, 5, 10, and 20. (F) LNCaP and PC-3 cells were treated with DCEM1 for 24 and 48 hours and lysates were prepared and analyzed for DEVDase activity using specific peptide substrate. […] (G) LNCaP and PC-3 cells were pre-treated with SKQ1 followed by DCEM1 treatment and analyzed for cell viability by MTT assay. (H) LNCaP and PC-3 cells were treated with either DCEM1 or H2O2 (200 μM) for 24 hours and total DNA were isolated and analyzed for mtDNA damage as described in materials and methods. […]

[2] = target: T1, HSP60-ClpP interaction (Homo sapiens, UniProt P10809); assay: HSP60-ClpP co-immunoprecipitation assay in PCa cells; details: LNCaP and PC-3 cells, 24 hours
T1 construct: endogenous in cells
Description: as §1

[3] = test system: PC-3 cells; assay: Protein expression of nuclear encoded OXPHOS subunits
[4] = test system: LNCaP and PC-3 cells; assay: mtDNA damage analysis; details: 24 hours
Description: as §1

[5] = test system: LNCaP and PC-3 cells; assay: mitoROS by flow cytometry using mitoSOX dye
Description: FIG. 6. Pharmacological inhibition of HSP60-ClpP interaction induces UPR^mt and PCa cell death. (A) Docking of DCEM1 into apical domain of HSP60. (B) LNCaP and PC-3 cells were treated with DCEM1 for 24 hours and HSP60-ClpP interaction was analyzed by co-immunoprecipitation assay. (C) LNCaP and PC-3 cells were treated with DCEM1 for 24 hours and mitoROS levels were analyzed by flow cytometry using mitoSOX dye. (D) LNCaP and PC-3 cells were treated with DCEM1 for 24 hours and poly-Ub protein levels were analyzed by western blotting. (E) LNCaP and PC-3 cells were treated with DCEM1 for 24 and 48 hours and apoptotic cell populations were analyzed by flow cytometry using Annexin V FITC/PI method as explained in materials and methods. In (E) top panel, the bars in each series from left to right are control, 5, 10, and 20, and in (E) bottom panel, the bars in each series from left to right are DMSO, 5, 10, and 20. (F) LNCaP and PC-3 cells were treated with DCEM1 for 24 and 48 hours and lysates were prepared and analyzed for DEVDase activity using specific peptide substrate. In (F), the bars in each series from left to right are DMSO, 5, 10, and 20. (G) LNCaP and PC-3 cells were pre-treated with SKQ1 followed by DCEM1 treatment and analyzed for cell viability by MTT assay. (H) LNCaP and PC-3 cells were treated with either DCEM1 or H2O2 (200 μM) for 24 hours and total DNA were isolated and analyzed for mtDNA damage as described in materials and methods.
FIG. 7. […] (A) LNCaP and PC-3 cells were pre-treated with either rotenone or antimycin-A followed by DCEM1 treatment and mitochondrial ROS was analyzed as described in material and methods (data represented as fold change compared to control). In (A), the bars in each series from left to right are control, DCEM1, Rot+DCEM1, Anti A+DCEM1, Rot, and Anti A (B) ClpP protein was over-expressed in LNCaP and PC-3 cells followed by DCEM1 treatment and mitochondrial ROS was analyzed as described in material and methods (Data represented as fold change compared to control). […]

[6] = test system: LNCaP and PC-3 cells; assay: poly-Ub protein levels by western blotting; details: 24 hours
Description: as §1

[7] = test system: LNCaP and PC-3 cells; assay: Mitochondrial membrane potential (mitoMP)
Description: FIG. 7. Pharmacological inhibition of HSP60-ClpP interaction induces metabolic stress in PCa cells. (A) LNCaP and PC-3 cells were pre-treated with either rotenone or antimycin-A followed by DCEM1 treatment and mitochondrial ROS was analyzed as described in material and methods (data represented as fold change compared to control). In (A), the bars in each series from left to right are control, DCEM1, Rot+DCEM1, Anti A+DCEM1, Rot, and Anti A (B) ClpP protein was over-expressed in LNCaP and PC-3 cells followed by DCEM1 treatment and mitochondrial ROS was analyzed as described in material and methods (Data represented as fold change compared to control). […] (C) ClpP protein was over-expressed in LNCaP and PC-3 cells followed by DCEM1 treatment and level of poly-ubiquitinated protein was analyzed by western blotting. (D) ClpP protein was over-expressed in LNCaP and PC-3 cells followed by DCEM1 treatment and DEVDase activity was analyzed as described in material and methods (Data represented as fold change compared to control). […] (E) Mitochondrial membrane potential (mitoMP) was analyzed in LNCaP and PC-3 cells treated with DCEM1 as described in material and methods (Data represented as fold change compared to control). […] (F) ATP level was analyzed in LNCaP and PC-3 cells treated with DCEM1 as described in material and methods (Data represented as fold change compared to control). […]

[8] = test system: PC-3 cells; assay: Oxygen consumption rate (OCR); details: DCEM1 100 nM, 500 nM, 1 μM, 5 μM

T1 sequence (P10809 27-573): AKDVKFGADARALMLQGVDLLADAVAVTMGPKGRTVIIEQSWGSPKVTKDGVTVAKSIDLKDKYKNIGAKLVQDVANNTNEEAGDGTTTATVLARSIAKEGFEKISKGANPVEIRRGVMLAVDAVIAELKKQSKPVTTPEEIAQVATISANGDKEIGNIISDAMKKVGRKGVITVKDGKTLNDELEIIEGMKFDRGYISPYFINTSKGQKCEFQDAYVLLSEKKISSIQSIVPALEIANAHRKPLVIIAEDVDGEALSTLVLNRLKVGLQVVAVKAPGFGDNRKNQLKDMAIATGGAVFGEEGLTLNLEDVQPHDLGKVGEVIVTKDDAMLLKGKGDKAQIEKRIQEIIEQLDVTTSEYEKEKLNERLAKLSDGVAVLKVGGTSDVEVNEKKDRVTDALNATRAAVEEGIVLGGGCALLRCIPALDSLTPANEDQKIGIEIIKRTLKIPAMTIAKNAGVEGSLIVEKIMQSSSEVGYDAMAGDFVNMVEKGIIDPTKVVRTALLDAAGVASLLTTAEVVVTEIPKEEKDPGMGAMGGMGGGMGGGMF

## CCOc1cc(CNCc2nc3ccccc3[nH]2)ccc1OCc1cccs1 [DCEM1]
[1]; LNCaP and PC-3 cells, 24 and 48 hours, Annexin V FITC/PI
  apoptotic cell death: apoptotic cell death was observed
[1]; PCa cells
  cell death in PCa cells: robust cell death
[2]
  HSP60-ClpP interaction by co-immunoprecipitation: inhibited HSP60-ClpP interactions in a dose dependent manner
[3]
  nuclear encoded subunits of OXPHOS Complexes: downregulation of nuclear encoded subunits of OXPHOS Complexes
[4]
  mtDNA damage: Severe mtDNA damage
[5]; ClpP over-expressed in LNCaP and PC-3 cells followed by DCEM1
  DCEM1-induced mitoROS production and DEVDase activity with ClpP overexpression: inhibited
[5]; LNCaP and PC-3 cells, 24 hours
  mitoROS levels: mitoROS upregulation
[5]; pre-treated with rotenone or antimycin-A followed by DCEM1
  DCEM1-induced mitoROS production with inhibition of Complex I or III: not attenuated
[6]
  poly-Ub protein levels: increased accumulation of poly-Ub proteins
[7]
  mitochondrial membrane potential: robustly depolarized mitochondrial membrane
[8]
  oxygen consumption rate (OCR): reduction in oxygen consumption rate
